Source: US20260132152A1, “SOLID FORMS OF AN ORALLY-DELIVERED BETA-LACTAMASE INHIBITOR AND USES THEREOF” (Venatorx Pharmaceuticals, Inc., priority 2019, published 2026)
Converted amounts (≈) assume the structure as drawn. Read-outs that look alike come from different tables or passages of the source. One block for each compound: values may come before it.

How the values were obtained:
Type in all cases: physicochemical
[1] = Mass spectrometric analysis of conversion of the ethanolate to Compound 1 in water; conditions: in the presence of water, high-resolution MS
Method: High resolution mass spectra from 50 to 3000 Da were collected with a Bruker Maxis —Plus QTOF mass spectrometer using an electrospray ionization source. The instrument was controlled and data analyzed using Bruker Compass v.4.4 software. The mass spectrometer was calibrated immediately prior to analyses and was operated in positive ionization mode using an Electrospray Ionization (ESI) source. Samples were prepared by dilution in absolute ethanol (without denaturants) or HPLC grade water prior to direct infusion into the ion source.
Mass spectrometric (MS) analyses were performed to confirm the structure of Compound 1-ethanolate Form A, and evaluate the ability of EtOH to dissociate from Compound 1-ethanolate in water. Compound 1-ethanolate Form A, and an amorphous preparation of ((2-ethylbutanoyl)oxy)methyl (R)-2-hydroxy-3-propionamido-3,4-dihydro-2H-benzo[e][1,2]oxaborinine-8-carboxylate were diluted in absolute EtOH or water and analyzed by high-resolution mass spectrometry. A sample of amorphous ((2-ethylbutanoyl)oxy)methyl (R)-2-hydroxy-3-propionamido-3.4-dihydro-2H-benzo[e]|1.2]oxaborinine-8-carboxylate, dissolved in absolute EtOH, was spiked with water prior to analysis. […] The exact mass observed for sodiated Compound 1-ethanolate was 442.2007 (difference=1.4 ppm vs. theoretical: C21H30BNO7Na: 442.2013 Da). […]

[2] = Exposure to elevated RH (75%, 85%, 97%) at room temperature
Method: Samples of Compound 1-ethanolate Form A were exposed to elevated RH (75%, 85% and 97%) at room temperature for approximately 3 hours and 24 hours (Table 8).

[3] = Separate DVS analysis with stepped increase in relative humidity, 0% RH to 60% RH, 4 h per step, then XRPD; conditions: for Mass change in stepped DVS: at humidities higher than 40% RH, loss of ethanol from the boronate ester complex; for Mass increase in stepped DVS: from 0% RH to 40% RH; for Retention of crystal structure (XRPD after stepped DVS): up to 60% r.h.
Method: A second set of DVS experiments were conducted using a stepped method from 0% RH to 60% RH with steps of 10% RH and four hours of equilibration at each humidity value. […] The samples were placed on an aluminum holder and allowed to equilibrate at 0% RH before starting the following predefined humidity program; hold for 4 h at 0% RH, increase humidity by a step of 10% RH, hold for 4 h. repeat the above two steps five times until a value of 60% RH has been reached. The samples were then analyzed for crystallinity using the second set of XRPD conditions.

[4] = Dynamic vapor sorption (DVS) analysis, 5% RH to 95% RH and back to 5% RH at 10% RH increments; conditions: for State of sample after DVS analysis: after 5-95-5% RH cycle
Method: Moisture sorption/desorption data were collected on a VTI SGA-100 Vapor Sorption Analyzer. NaCl and PVP were used as calibration standards. Samples were not dried prior to analysis. Sorption and desorption data were collected over a range from 5% to 95% RH at 10% RH increments under a nitrogen purge (RH=relative humidity). The equilibrium criterion used for analysis was less than 0.0100% weight change in 5 minutes with a maximum equilibration time of 3 hours. Data were not corrected for the initial moisture content of the samples.
DVS analysis of Compound 1-ethanolate Form A was conducted from 5% relative humidity (RH) to 95% RH and back to 5% RH at 10% RH increments (FIG. 7). […] A loss of 1.8 wt % was observed between 55% RH and 65% RH possibly due to water displacing ethanol. After 65% RH, the sample gained 3.8 wt % between 65% RH and 95% RH. […] Weight loss (˜7.6 wt %) was observed between 95% RH and 5% RH (i.e., desorption). After DVS analysis, it was noted that the sample had deliquesced.
DVS analysis of Compound 1-ethanolate Form B (with minor Form A) was conducted from 5% RH to 95% RH and back to 5% RH at 10% RH increments (FIG. 12). The DVS isotherm of Form B is qualitatively similar to that of Form A. Form B lost 0.2 wt % upon equilibration at ˜5% RH. […] A weight loss of 1.1% was observed between 45% RH and 55% RH, possibly due to the displacement of the ethanol with water. After 55% RH, the sample gained 3.3 wt % between 55% RH and 95% RH. […] Weight loss (˜5.8 w1%) was observed during desorption from 95% RH to 5% RH.

[5] = Visual solubility estimates by aliquot addition at ambient temperature
Method: Visual solubility estimates for Compound 1-ethanolate Form A were determined in a variety of solvents and solvent mixtures using an aliquot addition method to aid in experimental design.

[6] = Solvent-mediated interconversion slurries with seeds of Form A and Form B; conditions: slurries in 3% DCM in heptane and 5% EtOH in heptane, room temperature, ~2 weeks, XRPD
Method: Saturated solutions of Compound 1-ethanolate were prepared in 3% DCM in heptane and 5% EtOH in heptane.
Approximately equal amounts of Form A, and Form B (containing a minor amount of Form A) were added to the filtered saturated solutions, and the suspensions were slurried at room temperature for ˜2 weeks, and the isolated solids were observed by polarized light microscopy (PLM) and analyzed by XRPD.

Compound: CCOB1Oc2c(cccc2C(=O)OCOC(=O)C(CC)CC)C[C@@H]1NC(=O)CC [Compound 1-ethanolate, ((2-ethylbutanoyl)oxy)methyl (R)-2-ethoxy-3-propionamido-3,4-dihydro-2H-benzo[e][1,2]oxaborinine-8-carboxylate]
Conversion to the free boronic acid (Compound 1) [1]: rapidly converted to the free boronic acid

Observation on exposure to elevated RH ([2]; 75% RH, after 3 hours): no deliquescence
Observation on exposure to elevated RH ([2]; 75% RH, after 24 hours): began deliquescing
Observation on exposure to elevated RH ([2]; 85% RH, after 3 hours): appeared wet with solids present
Observation on exposure to elevated RH ([2]; 85% RH, after 24 hours): deliquesced
Observation on exposure to elevated RH ([2]; 97% RH, after 3 hours): deliquescence was observed
Observation on exposure to elevated RH ([2]; 97% RH, after 24 hours): deliquesced
Mass change in stepped DVS [3]: a decrease in mass was observed
Mass increase in stepped DVS [3]: 0.3 wt, -%
State of sample after DVS analysis [4]: deliquesced
Weight loss in DVS (desorption) ([4]; between 95% RH and 5% RH): ~7.6 wt %
Weight % chg ([4]; desorption, elapsed 731.2 min, sample RH 85.19%, 25.19 °C): 0.633%
Weight % chg ([4]; desorption, elapsed 918.9 min, sample RH 74.98%, 25.19 °C): −0.694%
Weight % chg ([4]; desorption, elapsed 1106.5 min, sample RH 65.14%, 25.19 °C): −1.716%
Weight % chg ([4]; desorption, elapsed 1296.4 min, sample RH 54.99%, 25.19 °C): −2.592%
Weight % chg ([4]; desorption, elapsed 1483.9 min, sample RH 45.11%, 25.19 °C): −3.308%
Weight % chg ([4]; desorption, elapsed 1671.4 min, sample RH 35.03%, 25.19 °C): −3.916%
Weight % chg ([4]; desorption, elapsed 1859.0 min, sample RH 25.06%, 25.19 °C): −4.432%
Weight % chg ([4]; desorption, elapsed 2044.7 min, sample RH 14.87%, 25.19 °C): −4.883%
Weight % chg ([4]; desorption, elapsed 2228.6 min, sample RH 5.67%, 25.19 °C): −5.275%
Hygroscopicity ([4]; from 5-55% RH): non-hygroscopic
Weight gain in DVS ([4]; sorption, between 5% RH and 55% RH): ~0.3 wt %
Weight loss in DVS ([4]; sorption, between 55% RH and 65% RH, possibly water displacing ethanol): 1.8 wt %
Weight gain in DVS ([4]; sorption, between 65% RH and 95% RH): 3.8 wt %
Weight % chg ([4]; sorption, elapsed 21.1 min, sample RH 5.15%, 25.19 °C): −0.043%
Weight % chg ([4]; sorption, elapsed 39.7 min, sample RH 14.86%, 25.19 °C): −0.003%
Weight % chg ([4]; sorption, elapsed 51.8 min, sample RH 24.90%, 25.20 °C): 0.051%
Weight % chg ([4]; sorption, elapsed 64.8 min, sample RH 34.83%, 25.19 °C): 0.120%
Weight % chg ([4]; sorption, elapsed 78.3 min, sample RH 44.87%, 25.19 °C): 0.214%
Weight % chg ([4]; sorption, elapsed 91.2 min, sample RH 54.86%, 25.18 °C): 0.316%
Weight % chg ([4]; sorption, elapsed 281.1 min, sample RH 65.03%, 25.18 °C): −1.494%
Weight % chg ([4]; sorption, elapsed 294.7 min, sample RH 74.65%, 25.20 °C): −1.170%
Weight % chg ([4]; sorption, elapsed 356.0 min, sample RH 84.85%, 25.19 °C): 0.451%
Weight % chg ([4]; sorption, elapsed 543.7 min, sample RH 94.83%, 25.19 °C): 2.311%
Weight % chg ([4]; start, elapsed 0.1 min, sample RH 0.99%, 25.18 °C): 0.000%
solubility ([5]; Cyclohexane): <1 mg/mL
solubility ([5]; Heptane): <1 mg/mL
solubility ([5]; organic solvent or mixture, thermodynamic from solid, ACN, read-out: Solubility): > 66 mg/mL
solubility ([5]; organic solvent or mixture, thermodynamic from solid, Acetone, read-out: Solubility): 34 mg/mL (≈ 81.1 mM)
solubility ([5]; organic solvent or mixture, thermodynamic from solid, Anisole, read-out: Solubility): 35 mg/mL (≈ 83.5 mM)
solubility ([5]; organic solvent or mixture, thermodynamic from solid, Chloroform, read-out: Solubility): 36 mg/mL (≈ 85.9 mM)
solubility ([5]; organic solvent or mixture, thermodynamic from solid, Cyclohexane, read-out: Solubility): < 1 mg/mL
solubility ([5]; organic solvent or mixture, thermodynamic from solid, Cyclohexane:EtOAc 3:1 by volume, read-out: Solubility): 4 mg/mL (≈ 9.54 mM)
solubility ([5]; organic solvent or mixture, thermodynamic from solid, Cyclohexane:EtOH 90:10 by volume, read-out: Solubility): 17 mg/mL (≈ 40.5 mM)
solubility ([5]; organic solvent or mixture, thermodynamic from solid, DCM, read-out: Solubility): 34 mg/mL (≈ 81.1 mM)
solubility ([5]; organic solvent or mixture, thermodynamic from solid, DMF, read-out: Solubility): > 63 mg/mL
solubility ([5]; organic solvent or mixture, thermodynamic from solid, DMSO, read-out: Solubility): > 71 mg/mL
solubility ([5]; organic solvent or mixture, thermodynamic from solid, Diethyl Ether, read-out: Solubility): 9 mg/mL (≈ 21.5 mM)
solubility ([5]; organic solvent or mixture, thermodynamic from solid, EtOAc, read-out: Solubility): > 68 mg/mL
solubility ([5]; organic solvent or mixture, thermodynamic from solid, EtOH, read-out: Solubility): > 68 mg/mL
solubility ([5]; organic solvent or mixture, thermodynamic from solid, Heptane, read-out: Solubility): < 1 mg/mL
solubility ([5]; organic solvent or mixture, thermodynamic from solid, Heptane:MEK 2:1 by volume, read-out: Solubility): 22 mg/mL (≈ 52.5 mM)
solubility ([5]; organic solvent or mixture, thermodynamic from solid, IPA, read-out: Solubility): 34 mg/mL (≈ 81.1 mM)
solubility ([5]; organic solvent or mixture, thermodynamic from solid, IPOAc, read-out: Solubility): > 66 mg/mL
solubility ([5]; organic solvent or mixture, thermodynamic from solid, MEK, read-out: Solubility): 37 mg/mL (≈ 88.2 mM)
solubility ([5]; organic solvent or mixture, thermodynamic from solid, MTBE, read-out: Solubility): 22 mg/mL (≈ 52.5 mM)
solubility ([5]; organic solvent or mixture, thermodynamic from solid, Nitromethane, read-out: Solubility): > 68 mg/mL
solubility ([5]; organic solvent or mixture, thermodynamic from solid, TFE, read-out: Solubility): > 66 mg/mL
solubility ([5]; organic solvent or mixture, thermodynamic from solid, THF, read-out: Solubility): > 64 mg/mL
solubility ([5]; organic solvent or mixture, thermodynamic from solid, Toluene, read-out: Solubility): 33 mg/mL (≈ 78.7 mM)
solubility ([5]; organic solvent or mixture, thermodynamic from solid, Xylene, read-out: Solubility): 17 mg/mL (≈ 40.5 mM)
Thermodynamically stable polymorph [6]: the stable form at room temperature
Thermodynamically stable polymorph ([6]; listed as Polymorph form A): thermodynamically stable
Compound: CCOB1Oc2c(cccc2C(=O)OCOC(=O)C(CC)CC)C[C@@H]1NC(=O)CC [Compound 1-ethanolate Form A, ((2-ethylbutanoyl)oxy)methyl (R)-2-ethoxy-3-propionamido-3,4-dihydro-2H-benzo[e][1,2]oxaborinine-8-carboxylate]
Retention of crystal structure (XRPD after stepped DVS) [3]: retained its predominant crystal structure for at least four hours

Mass change in stepped DVS [3]: a decrease in mass was observed
Mass increase in stepped DVS [3]: 0.4 wt, -%
State of sample after DVS analysis [4]: appeared to have deliquesced
Weight loss in DVS (desorption) ([4]; desorption from 95% RH to 5% RH): ~5.8 w1%
Weight loss upon equilibration ([4]; equilibration at ~5% RH): 0.2 wt %
Weight gain in DVS ([4]; sorption, between 5% RH and 45% RH): ~0.5 wt %
Weight loss in DVS ([4]; sorption, between 45% RH and 55% RH, possibly displacement of ethanol with water): 1.1%
Weight gain in DVS ([4]; sorption, between 55% RH and 95% RH): 3.3 wt %
Compound: CCOB1Oc2c(cccc2C(=O)OCOC(=O)C(CC)CC)C[C@@H]1NC(=O)CC [Compound 1-ethanolate Form B, ((2-ethylbutanoyl)oxy)methyl (R)-2-ethoxy-3-propionamido-3,4-dihydro-2H-benzo[e][1,2]oxaborinine-8-carboxylate]
Retention of crystal structure (XRPD after stepped DVS) [3]: retained its predominant crystal structure for at least four hours
